Several values for one entry are separate records, joined by “and”; a condition that tells them apart may be missing. Identical values can stand only once. Toxic doses and inconclusive results are not listed. Rule for the calls: active = survival T/C of 150% or more; inactive = T/C below 125% in these data.
Test system: P388 leukemia ip, CD2F1 mice, survival T/C
Experiment: NCI In Vivo Anticancer Drug Screen. Data for tumor model P388 Leukemia (intraperitoneal) in CD2F1 (CDF1) mice
Conditions: endpoint: median survival time, higher = longer survival
Procedure, shortened: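 Mice carrying the transplanted tumor received test compound or vehicle. Survival was recorded in each group, and the value is the treated-group measurement divided by that of the vehicle-treated control group.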

[1] = dose: 50.0 mg/kg/injection, schedule: Q01DX005 (ip), vehicle: saline with Tween-80
[2] = dose: 100.0 mg/kg/injection, schedule: Q01DX005 (ip), vehicle: saline with Tween-80
[3] = dose: 50.0 mg/kg/injection, schedule: Q01DX005 (ip), vehicle: Klucel (hydroxypropylcellulose) (HPC)
[4] = dose: 100.0 mg/kg/injection, schedule: Q01DX005 (ip), vehicle: Klucel (hydroxypropylcellulose) (HPC)
[5] = dose: 50.0 mg/kg/injection, schedule: Q01DX009 (ip), vehicle: saline
[6] = dose: 100.0 mg/kg/injection, schedule: Q01DX009 (ip), vehicle: saline
[7] = dose: 100.0 mg/kg/injection, schedule: Q04DX002 (ip), vehicle: saline with Tween-80
[8] = dose: 200.0 mg/kg/injection, schedule: Q01DX009 (ip), vehicle: saline
[9] = dose: 200.0 mg/kg/injection, schedule: Q04DX002 (ip), vehicle: saline with Tween-80
[10] = dose: 50.0 mg/kg/injection, schedule: Q01DX009 (ip), vehicle: saline with Tween-80
[11] = dose: 100.0 mg/kg/injection, schedule: Q01DX009 (ip), vehicle: saline with Tween-80
[12] = dose: 12.5 mg/kg/injection, schedule: Q01DX009 (ip), vehicle: saline
[13] = dose: 25.0 mg/kg/injection, schedule: Q01DX009 (ip), vehicle: saline

Measured: T/C

CCOC(=O)/C(C)=C1\N=C(c2ccccc2)OC(=NC2CCCCC2)N1C1CCCCC1
inactive: [1] 96 % of control | [2] 91 % of control | dose: 200.0 mg/kg/injection, schedule: Q01DX005 (ip), vehicle: saline with Tween-80 94 % of control

COc1ccc2c(c1OC)CCN1C3=C(CC(OC(=O)c4ccccc4)CC3)C(=O)CC21 (stereo not drawn)
inactive: dose: 100.0 mg/kg/injection, schedule: Q01DX001 (ip), vehicle: saline sonified 100 % of control | dose: 200.0 mg/kg/injection, schedule: Q01DX001 (ip), vehicle: saline sonified 110 % of control | dose: 400.0 mg/kg/injection, schedule: Q01DX001 (ip), vehicle: saline sonified 110 % of control

O=C1/C(=c2\c3ccccc3n3c(=O)c4ccccc4nc23)Nc2ccccc21
inactive: dose: 25.0 mg/kg/injection, schedule: Q01DX005 (ip), vehicle: Klucel (hydroxypropylcellulose) (HPC) 92 % of control | [3] 91 % of control | [4] 91 % of control

C[N+](C)(C)CCc1ccc2ccccc2c1
inactive: dose: 25.0 mg/kg/injection, schedule: Q04DX002 (ip), vehicle: saline + alcohol 96 % of control | dose: 50.0 mg/kg/injection, schedule: Q04DX002 (ip), vehicle: saline + alcohol 92 % of control | dose: 100.0 mg/kg/injection, schedule: Q04DX002 (ip), vehicle: saline + alcohol 106 % of control and 108 % of control

Cc1cc(C)cc(NCCC#N)c1
inactive: dose: 100.0 mg/kg/injection, schedule: Q04DX003 (ip), vehicle: other 109 % of control | dose: 200.0 mg/kg/injection, schedule: Q04DX003 (ip), vehicle: other 109 % of control

N#Cc1ccc(NN=NCCCCl)cc1
inactive: dose: 25.0 mg/kg/injection, schedule: Q01DX005 (ip), vehicle: distilled water + Tween-80 95 % of control | dose: 25.0 mg/kg/injection, schedule: Q01DX005 (ip), vehicle: saline with Tween-80 100 % of control | dose: 50.0 mg/kg/injection, schedule: Q01DX005 (ip), vehicle: distilled water + Tween-80 93 % of control | [1] 100 % of control | dose: 100.0 mg/kg/injection, schedule: Q01DX005 (ip), vehicle: distilled water + Tween-80 95 % of control | [2] 121 % of control

O=C(Cc1ccc(OCc2ccccc2)cc1)NCc1ccc2c(c1)OCO2
inactive: dose: 15.0 mg/kg/injection, schedule: Q01DX005 (ip), vehicle: saline with Tween-80 96 % of control | dose: 30.0 mg/kg/injection, schedule: Q01DX005 (ip), vehicle: saline with Tween-80 91 % of control | dose: 60.0 mg/kg/injection, schedule: Q01DX005 (ip), vehicle: saline with Tween-80 89 % of control

C=C1C(=O)O[C@H]2C[C@@H]3O[C@@H]3[C@@H]12
inactive: dose: 1.56 mg/kg/injection, schedule: Q01DX009 (ip), vehicle: water 98 % of control | dose: 3.13 mg/kg/injection, schedule: Q01DX009 (ip), vehicle: water 100 % of control | dose: 6.25 mg/kg/injection, schedule: Q01DX009 (ip), vehicle: water 100 % of control | dose: 12.5 mg/kg/injection, schedule: Q01DX009 (ip), vehicle: water 109 % of control

CN(c1c(N)nc(N)nc1N)S(=O)(=O)c1ccc([N+](=O)[O-])cc1
inactive: dose: 60.0 mg/kg/injection, schedule: Q01DX005 (ip), vehicle: Klucel (hydroxypropylcellulose) (HPC) 108 % of control | dose: 120.0 mg/kg/injection, schedule: Q01DX005 (ip), vehicle: Klucel (hydroxypropylcellulose) (HPC) 104 % of control | dose: 240.0 mg/kg/injection, schedule: Q01DX005 (ip), vehicle: Klucel (hydroxypropylcellulose) (HPC) 100 % of control

CC(S)C(N)C(=O)O (stereo not drawn)
inactive: [5] 100 % of control | [6] 95 % of control | [7] 105 % of control and 94 % of control | [8] 97 % of control | [9] 114 % of control and 90 % of control | dose: 400.0 mg/kg/injection, schedule: Q04DX002 (ip), vehicle: saline with Tween-80 114 % of control and 89 % of control

Nc1nc(N)c2cc(Sc3ccc4ccccc4c3)ccc2n1
inactive: [10] 119 % of control | dose: 200.0 mg/kg/injection, schedule: Q01DX009 (ip), vehicle: saline with Tween-80 119 % of control

CC(=O)Nc1ccc(Nc2ccc(NCCO)c3c2C(=O)c2c(O)ccc(O)c2C3=O)cc1
inactive: dose: 25.0 mg/kg/injection, schedule: Q04DX002 (ip), vehicle: saline with Tween-80 96 % of control | dose: 50.0 mg/kg/injection, schedule: Q04DX002 (ip), vehicle: saline with Tween-80 96 % of control | [7] 100 % of control | [9] 100 % of control

CC(=O)Nc1ccc(C(/C=N\NC(N)=S)=N/NC(N)=S)cc1
inactive: dose: 25.0 mg/kg/injection, schedule: Q01DX009 (ip), vehicle: saline with Tween-80 99 % of control | [10] 97 % of control | [11] 105 % of control

Cn1c(=O)oc2cc([N+](=O)[O-])c(Cl)cc21
inactive: [3] 95 % of control | [4] 92 % of control

O=[N+]([O-])c1cnc(Sc2ncccn2)c([N+](=O)[O-])c1
inactive: dose: 3.12 mg/kg/injection, schedule: Q01DX009 (ip), vehicle: saline 96 % of control | dose: 3.12 mg/kg/injection, schedule: Q01DX009 (ip), vehicle: suspension in saline 107 % of control | dose: 6.25 mg/kg/injection, schedule: Q01DX009 (ip), vehicle: saline 96 % of control | dose: 6.25 mg/kg/injection, schedule: Q01DX009 (ip), vehicle: suspension in saline 104 % of control | [12] 99 % of control | dose: 12.5 mg/kg/injection, schedule: Q01DX009 (ip), vehicle: suspension in saline 98 % of control and 108 % of control | dose: 25.0 mg/kg/injection, schedule: Q01DX009 (ip), vehicle: suspension in saline 105 % of control | dose: 50.0 mg/kg/injection, schedule: Q01DX009 (ip), vehicle: suspension in saline 99 % of control and 107 % of control

C/C=C(\CCNCCCC)[Si](C)(C)C
inactive: dose: 100.0 mg/kg/injection, schedule: Q04DX002 (ip), vehicle: saline 104 % of control | dose: 200.0 mg/kg/injection, schedule: Q04DX002 (ip), vehicle: saline 101 % of control

CCC(=O)NC(Cc1ccccc1F)C(=O)O (stereo not drawn)
inactive: [12] 101 % of control | [13] 88 % of control | [5] 91 % of control and 93 % of control | [8] 95 % of control

CCOC(=O)/C(=C(\C)N)C1CC(=O)NC1=O (stereo not drawn)
inactive: [13] 104 % of control | [5] 104 % of control | [6] 101 % of control | [8] 107 % of control

COc1ccccc1C(=O)CCN(C)C
inactive: dose: 15.0 mg/kg/injection, schedule: Q01DX005 (ip), vehicle: saline 98 % of control | dose: 30.0 mg/kg/injection, schedule: Q01DX005 (ip), vehicle: saline 112 % of control | dose: 60.0 mg/kg/injection, schedule: Q01DX005 (ip), vehicle: saline 114 % of control and 97 % of control

CC(C)(C)OC(=O)NCC(=O)NC(CSC(c1ccccc1)c1ccccc1)C(=O)NCC(=O)O (stereo not drawn)
inactive: [3] 105 % of control | [4] 99 % of control

Cc1noc(/N=N/N(C)c2ccccc2)c1C
inactive: [10] 103 % of control | [11] 96 % of control

Cn1c(=O)c2nc(-c3ccccc3)cnc2n(C)c1=O
inactive: dose: 100.0 mg/kg/injection, schedule: Q01DX001 (ip), vehicle: saline 99 % of control | dose: 200.0 mg/kg/injection, schedule: Q01DX001 (ip), vehicle: saline 96 % of control | dose: 400.0 mg/kg/injection, schedule: Q01DX001 (ip), vehicle: saline 111 % of control

COC(=O)/C=C/c1cc[n+]([O-])cc1
inactive: dose: 50.0 mg/kg/injection, schedule: Q01DX005 (ip), vehicle: saline 93 % of control | dose: 100.0 mg/kg/injection, schedule: Q01DX005 (ip), vehicle: saline 101 % of control | dose: 200.0 mg/kg/injection, schedule: Q01DX005 (ip), vehicle: saline 101 % of control

Source: PubChem BioAssay AID330 (DTP/NCI, 2004)
